Measured values published in ChEMBL document CHEMBL1201862, “PubChem BioAssay data set” (2004).
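Five concentrations, 48 hours, 96-well plates. GI50 is the concentration that inhibits growth by half.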 Activity calls are given as the source filed them. Rule as the data show it: active = GI50 up to about 1.1 µM and inactive = higher.

Assays:
Experiment in all cases: NCI anticancer screen, dose series, 48 h
HT-29 = system: HT-29
TK-10 = system: TK-10
EKVX = system: EKVX
MDA-N = system: MDA-N
SF-268 = system: SF-268
HCT-116 = system: HCT-116
SF-295 = system: SF-295
SF-539 = system: SF-539
U-251 = system: U-251
COLO 205 = system: COLO 205
UO-31 = system: UO-31
M14 = system: M14
UACC-257 = system: UACC-257
A549 = system: A549
OVCAR-3 = system: OVCAR-3
UACC-62 = system: UACC-62
T47D = system: T47D
NCI-H226 = system: NCI-H226

Structure (SMILES) | GI50 (HT-29) | GI50 (TK-10) | GI50 (EKVX) | GI50 (MDA-N) | GI50 (SF-268) | GI50 (HCT-116) | GI50 (SF-295) | GI50 (SF-539) | GI50 (U-251) | GI50 (COLO 205) | GI50 (UO-31) | GI50 (M14) | GI50 (UACC-257) | GI50 (A549) | GI50 (OVCAR-3) | GI50 (UACC-62) | GI50 (T47D) | GI50 (NCI-H226)
Cc1cc2c(SCc3ccccc3Cl)nc(N)nc2nc1C | > 100 µM (inactive) | > 100 µM (inactive) | > 100 µM (inactive) | > 100 µM (inactive) | 65.5 µM (inactive) | > 100 µM (inactive) | 97.5 µM (inactive) | > 100 µM (inactive) | > 100 µM (inactive) | > 100 µM (inactive) | 1.79 µM (inactive) | > 100 µM (inactive) | > 100 µM (inactive) | > 100 µM (inactive) | > 100 µM (inactive) | > 100 µM (inactive) | > 100 µM (inactive) | 
Nc1nc(-c2cccs2)cs1 | > 100 µM (inactive) | 87.9 µM (inactive) | 43.3 µM (inactive) | 45.7 µM (inactive) | > 100 µM (inactive) | 56.8 µM (inactive) | 64.4 µM (inactive) | > 100 µM (inactive) | 71.3 µM (inactive) | 88.1 µM (inactive) | 54.6 µM (inactive) | > 100 µM (inactive) | > 100 µM (inactive) | 58.6 µM (inactive) | > 100 µM (inactive) | 83.9 µM (inactive) | 66.8 µM (inactive) | 
CCOC(=O)c1csc(NC(=O)CN2CCOCC2)n1 | > 100 µM (inactive) | > 100 µM (inactive) | > 100 µM (inactive) | > 100 µM (inactive) | > 100 µM (inactive) |  | > 100 µM (inactive) | > 100 µM (inactive) | > 100 µM (inactive) | > 100 µM (inactive) | > 100 µM (inactive) | > 100 µM (inactive) | > 100 µM (inactive) | > 100 µM (inactive) | > 100 µM (inactive) | > 100 µM (inactive) | > 100 µM (inactive) | 
Cc1c(OCc2cccc3ccccc23)ccc2c(=O)cc(SCCN3CCOCC3)oc12 | > 100 µM (inactive) | > 100 µM (inactive) | > 100 µM (inactive) |  | > 100 µM (inactive) | > 100 µM (inactive) | > 100 µM (inactive) | > 100 µM (inactive) | > 100 µM (inactive) | > 100 µM (inactive) | > 100 µM (inactive) | > 100 µM (inactive) | > 100 µM (inactive) | > 100 µM (inactive) | > 100 µM (inactive) | > 100 µM (inactive) | > 100 µM (inactive) | > 100 µM (inactive)
Cc1cn2c(C)csc2c1P(=O)(OC(C)C)OC(C)C | > 100 µM (inactive) | > 100 µM (inactive) | > 100 µM (inactive) | > 100 µM (inactive) | > 100 µM (inactive) | > 100 µM (inactive) | > 100 µM (inactive) | > 100 µM (inactive) | > 100 µM (inactive) | > 100 µM (inactive) | > 100 µM (inactive) | > 100 µM (inactive) | > 100 µM (inactive) | > 100 µM (inactive) | > 100 µM (inactive) | > 100 µM (inactive) |  | 
O=C1c2ccccc2S(=O)(=O)c2c1cccc2[N+](=O)[O-] | 2.57 µM (inactive) | 5.69 µM (inactive) | 3.35 µM (inactive) |  | 3.05 µM (inactive) | 1.3 µM (inactive) | 8.99 µM (inactive) | 1.94 µM (inactive) | 2.65 µM (inactive) | 1.16 µM (inactive) | 2 µM (inactive) | 1.61 µM (inactive) | 1.87 µM (inactive) | 4.7 µM (inactive) | 1.22 µM (inactive) | 1.72 µM (inactive) | 2.37 µM (inactive) | > 7.26 µM (inactive)
CCC(=O)NI1OC(=O)c2ccccc21 | > 100 µM (inactive) | > 100 µM (inactive) | > 100 µM (inactive) |  | > 100 µM (inactive) | > 100 µM (inactive) | > 100 µM (inactive) | > 100 µM (inactive) | > 100 µM (inactive) | > 100 µM (inactive) | > 100 µM (inactive) | > 100 µM (inactive) | > 100 µM (inactive) | > 100 µM (inactive) | > 100 µM (inactive) | > 100 µM (inactive) | > 100 µM (inactive) | > 100 µM (inactive)
CCCCCCc1cc2cc(C(=O)Nc3ccc(F)cc3)c(=N)oc2cc1O | 28 µM (inactive) |  | 3.27 µM (inactive) | 3.57 µM (inactive) | 0.735 µM (active) | 2.51 µM (inactive) | 3.96 µM (inactive) | 2.17 µM (inactive) | 2.45 µM (inactive) | 30.8 µM (inactive) | 3.36 µM (inactive) | 2.92 µM (inactive) | 3.37 µM (inactive) | 3.21 µM (inactive) | 3.48 µM (inactive) | 1.92 µM (inactive) |  | 
Cc1cc(C)c(C2CC(O)C(CO)O2)cc1C (centres undefined) | > 100 µM (inactive) | > 100 µM (inactive) | > 100 µM (inactive) | > 100 µM (inactive) | > 100 µM (inactive) | > 100 µM (inactive) | > 100 µM (inactive) | > 100 µM (inactive) | > 100 µM (inactive) | > 10 µM (inactive) | > 100 µM (inactive) | > 100 µM (inactive) | > 100 µM (inactive) | > 100 µM (inactive) | > 100 µM (inactive) | > 100 µM (inactive) |  | > 100 µM (inactive)
CO[C@@]12C[C@@H](CNC(=O)c3cc(Br)c[nH]3)O[C@@H]1NC(=O)N2 | > 100 µM (inactive) | > 100 µM (inactive) | > 100 µM (inactive) |  | > 100 µM (inactive) | > 100 µM (inactive) | > 100 µM (inactive) | > 100 µM (inactive) | > 100 µM (inactive) | > 100 µM (inactive) | > 100 µM (inactive) | > 100 µM (inactive) | > 100 µM (inactive) | > 100 µM (inactive) | > 100 µM (inactive) | > 100 µM (inactive) | > 100 µM (inactive) | > 100 µM (inactive)
O=c1[nH]c(=O)n(COCc2ccccc2)c2ccccc12 | 31.9 µM (inactive) | 51.5 µM (inactive) | 22.5 µM (inactive) | 83 µM (inactive) |  | 46.3 µM (inactive) | > 100 µM (inactive) | 47.9 µM (inactive) | 52.1 µM (inactive) | 72.3 µM (inactive) | 29.1 µM (inactive) | > 100 µM (inactive) | 53.7 µM (inactive) | 92.7 µM (inactive) | 87.3 µM (inactive) | 75 µM (inactive) |  | 47.8 µM (inactive)
S=C(Nc1ccccc1)c1ccc(CN2CCCCC2)s1 | 11.3 µM (inactive) |  | 41.8 µM (inactive) | 17.5 µM (inactive) | 26.4 µM (inactive) | 17.5 µM (inactive) | 18.5 µM (inactive) | 37.8 µM (inactive) | 19 µM (inactive) | 18.7 µM (inactive) | 16.2 µM (inactive) | 16 µM (inactive) | 19.4 µM (inactive) | 29.6 µM (inactive) | 48.6 µM (inactive) | 18.7 µM (inactive) | 26.4 µM (inactive) | 
CCCSc1ccc2[nH]c(N3C(=O)/C(=C/c4ccccc4)N=C3c3ccccc3)cc2c1 | 16.7 µM (inactive) |  | 19.1 µM (inactive) | 10.2 µM (inactive) | 18.4 µM (inactive) | 22.4 µM (inactive) |  | 18.1 µM (inactive) |  | 10.5 µM (inactive) | 42.9 µM (inactive) | 16.6 µM (inactive) | 17 µM (inactive) | 19.5 µM (inactive) |  | 21.5 µM (inactive) | 22.8 µM (inactive) | 
Nn1c(CNc2ccc(-c3nnc(Nc4ccc(Cl)cc4)n3N)cc2)nnc1Nc1ccc(Cl)cc1 | 44.2 µM (inactive) | > 100 µM (inactive) | > 100 µM (inactive) | 80.7 µM (inactive) | > 100 µM (inactive) | 37.1 µM (inactive) | > 100 µM (inactive) |  | > 100 µM (inactive) | > 100 µM (inactive) | 61.4 µM (inactive) | 51.6 µM (inactive) | > 100 µM (inactive) | > 100 µM (inactive) |  | 50.9 µM (inactive) |  | > 100 µM (inactive)
C[P+](c1ccccc1)(c1ccc(Cl)cc1)c1ccc(Cl)cc1 | 4.44 µM (inactive) | 14.2 µM (inactive) | 21.3 µM (inactive) |  | 38.6 µM (inactive) | 6.93 µM (inactive) |  | 19.8 µM (inactive) | 16.3 µM (inactive) | 10.4 µM (inactive) | 38 µM (inactive) | 11.6 µM (inactive) | 8.11 µM (inactive) | 32.4 µM (inactive) | 0.183 µM (active) | 10.1 µM (inactive) | 7.6 µM (inactive) | 24.3 µM (inactive)
CC(=O)OC[C@H]1O[C@@H](O[C@H]2[C@H](OC(C)=O)C=CO[C@@H]2COC(C)=O)C(OC(C)=O)[C@H]2OC(C)(C)O[C@H]21 (some centres undefined) | > 100 µM (inactive) | > 100 µM (inactive) | > 100 µM (inactive) |  | > 100 µM (inactive) | > 100 µM (inactive) | > 100 µM (inactive) | > 100 µM (inactive) | > 100 µM (inactive) | > 100 µM (inactive) | > 100 µM (inactive) | > 100 µM (inactive) | > 100 µM (inactive) | > 100 µM (inactive) | > 100 µM (inactive) | > 100 µM (inactive) | 64.4 µM (inactive) | > 100 µM (inactive)
COc1ccc(-c2csc3c2-n2cccc2C3=O)cc1 | 0.028 µM (active) |  | 0.767 µM (active) | 0.0135 µM (active) | 1.75 µM (inactive) | 0.0461 µM (active) | 0.0395 µM (active) | 0.0304 µM (active) | 0.0326 µM (active) | 0.215 µM (active) | 0.11 µM (active) | 0.0346 µM (active) |  | 0.159 µM (active) | 0.0416 µM (active) | 0.0269 µM (active) |  | 4.46 µM (inactive)
